Entries after “also recorded” stand apart in the source; their conditions may differ. Where two headings read alike, the source gives them in different places. Residues, ends and D or L forms follow the SMILES beside them. *: point of attachment. Cbz = O=C(OCc1ccccc1)*; CH2F = FC*
How the values were obtained:
[1] = tested on: primary cortical neurons; format: cell-based; details: for survival / protection of SD-neurons against cell death (apoptosis hallmarks overall): 24 hr-SD, inhibitors 100 μM (BA 25 μM, furosemide 2 mM, siRNA 3.8 μg)
[2] = tested on: caspase-3; assay: In cellula caspase-3 like activity (FAM-DEVD-FMK FLICA or anti-cleaved caspase-3 antibody) in SD-neurons; format: cell-based, mouse; details: 24 hr-SD; inhibitors 100 μM (BA 25 μM)
[3] = tested on: caspase-8; assay: In cellula caspase-8 like activity (FAM-LETD-FMK FLICA) in SD-neurons; format: cell-based, mouse; details: 24 hr-SD; inhibitors 100 μM
[4] = tested on: caspase-9; assay: In cellula caspase-9 like activity (FAM-LEHD-FMK FLICA) in SD-neurons; format: cell-based, mouse; details: 24 hr-SD; inhibitors 100 μM (BA 25 μM)
Method: Neurons were incubated with 1/150 of the DMSO stock solution of the FLICA for 1 hr at 37° C. 7-AAD and Hoechst were added during the last 15 min. Then neurons were washed three times in washing buffer (CaspaTag™ Kit). […] Cleaved caspase-3 was evidenced in cellula by immunodetection using Phycoerythrin (PE)-conjugated polyclonal antibodies (Beckton Dickinson). Neurons were stained by 7-AAD, trypsinized and fixed in PBS containing 1% PFA and 20 μg/ml Actinomycin D (AD) for 20 min. […] After washings in PBS, PE-related fluorescence was analysed on the cytometer (Fl-2 channel). Z-val-Ala-Asp(OMe)-FMK (Z-VAD-FMK), Quinoline-Val-Asp (OMe)-CH2-O-Ph (Q-VD-OPH), Z-DEVD-FMK ([…], ICN) and Z-LEHD-FMK ([…], all purchased from ICN (Orsay, France), and 4-(2-Aminoethyl)benzenesulfonyl fluoride (AEBSF, Pefabloc SC, Roche, Meylan, France) were added at 100 μM at the initiation of serum deprivation. Sulforhodamine-DEVD-FMK, (CaspaTag™ Red Activity Kit) permitted to detect activated caspase-3 and FITC-Annexin V. Neurons were incubated with 1/900 of the DMSO stock solution of the FLICA, and 1× FITC-annexin V in 200 μl of annexin-buffer for 30 min at 37° C. Then neurons were washed three times in a buffer composed of 50% washing buffer and 50% annexin-buffer. […] For FM, FLICA was excited through the BP515-560 filter and its fluorescence was collected through the LP590 long pass emission filter.
Neurons were loaded with 1 μM JC-1 for 30 min at 37° C. […] JC-1 monomers were detected in the Fl-1 channel by FC. […] Activated caspase-2, -3, -8 and -9 were detected using specific FAM-conjugated peptides (called Fluorochrome Labeled Inhibitor of Caspase, FLICA: CaspaTag™ fluorescein Caspase Activity Kits, Q-Biogen, Illkirch, France; ApoFluor™ Caspase Detection Kits, ICN, Orsay, France): FAM-VDVAD-FMK, FAM-DEVD-FMK, FAM-LETD-FMK and FAM-LEHD-FMK, respectively. Neurons were incubated with FLICAs (1:150, CaspaTag™ or 1:500, ApoFluor™) for 1 hr at 37° C., then washed three times in washing buffer. […] Phosphatidylserine (PS) exposure to the outer leaflet of the plasma membrane was detected through the fixation of FITC conjugated-annexin V (Immunotech).

[5] = biological target: T1, human recombinant caspase-2 (Homo sapiens, UniProt P42575); assay: In vitro VDVAD-AMC cleavage by recombinant caspase-2; format: biochemical; details: inhibitor 2 μM, 50 μM VDVAD-AMC, caspase-2 125 U, 30 min at 37° C.
T1 construct: purchased BIOMOL
T1 sequence (P42575 170-325 limits assumed): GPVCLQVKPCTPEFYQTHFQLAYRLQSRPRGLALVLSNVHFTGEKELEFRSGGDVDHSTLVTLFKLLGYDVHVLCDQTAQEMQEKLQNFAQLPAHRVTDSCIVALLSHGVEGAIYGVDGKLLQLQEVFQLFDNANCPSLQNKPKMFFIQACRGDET
T1 sequence (P42575 348-452 limits assumed): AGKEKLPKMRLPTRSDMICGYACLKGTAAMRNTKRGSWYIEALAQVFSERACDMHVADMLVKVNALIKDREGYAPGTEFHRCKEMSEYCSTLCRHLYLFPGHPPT
Method: Activity of human recombinant caspase-2 (BIOMOL QuantiZyme™ Assay System) was assessed in 100 μl assay buffer (50 mM HEPES, pH 7.4, 100 mM NaCl, 0.1% CHAPS, 10 mM DTT, 1 mM EDTA, 10% glycerol).

[6] = tested on: Jurkat cells; assay: VP16-induced cell death of Jurkat cells, cytoprotection assay; format: cell-based, human; details: for terminal nuclear alterations and PMP in VP16-treated Jurkat cells / ΔΨm loss in VP16-treated Jurkat cells: VP16 10 μM, 7-8 hrs, inhibitors 50 μM
[7] = tested on: caspase-2; assay: Caspase-2 activation (FLICA) in VP16-treated Jurkat cells; format: cell-based, human; details: VP16 10 μM, 7 hrs; inhibitors 50 μM
[8] = tested on: caspase-3; assay: Caspase-3 activation (FLICA) in VP16-treated Jurkat cells; format: cell-based, human; details: VP16 10 μM, 7 hrs; inhibitors 50 μM
[9] = tested on: caspase-2; assay: In cellula caspase-2 like activity (FAM-VDVAD-FMK FLICA; Western blotting) in SD-neurons; format: cell-based, mouse
[10] = tested on: cytochrome c; assay: Immunodetection of cytochrome c release in SD-neurons; format: cell-based, mouse; details: 24 hr-SD, inhibitors 100 μM
[11] = tested on: Bax; assay: Bax translocation to mitochondria in SD-neurons (Δ21 antibody immunostaining, subcellular fractionation); format: cell-based, mouse; details: 24 hr-SD, inhibitors 100 μM (furosemide 2 mM)
[12] = tested on: Bax α; assay: Bax cleavage (p22 to p18) in SD-neurons by Western blotting; format: cell-based, mouse; details: 24 hr-SD, Western Blotting Δ21 antibody; VDVAD/QVDOPH 100 μM, ALLN/ALLM 25 μM, E64d 25-50 μM, lactacystin 1-10 μM, epoxomycin 10 μM
Method: Neurons were lysed at RT in 25 mM Tris-HCl pH 7.4, 25 mM NaCl, 5 mM EDTA, 1% Triton X-100 supplemented by complete protease inhibitors cocktail (Roche). Protein concentration was determined using the Bio-Rad protein assay kit. Proteins (30 μg for caspase-2; 10 μg for Bax) were separated on 12.5% polyacrylamide gels and transferred to PVDF membranes (Amersham). […] The monoclonal anti-mouse caspase-2antibody (11B4, Alexis Biochemicals) was used at a 1:1000 dilution; polyclonal antibody (Δ21, Santa Cruz Biotechnology) raised against mouse Bax α deleted for the carboxy terminal 21 amino acids was used at a 1:200 dilution; polyclonal antibody (N20, Santa Cruz Biotechnology) raised against the amino terminus of Bax α (recognizing residues 11 to 30) was used at a 1:1000 dilution. Actin (42 kDa; Sigma; 1:5000) is used as an equal loading control. Immunoblotting of heat-shock protein 60 (HSP60) with a mouse monoclonal anti-HSP (Sigma; 1:400) was used to check the purity of the heavy membrane fraction enriched in mitochondria.

[13] = tested on: primary cortical neurons; assay: Cortical neuron death induced by other stimuli (ionomycin, staurosporine, β-amyloid 25-35, MPTP, 3-NPA, SNP); format: cell-based, mouse; details: for protection against ionomycin-induced neuronal cell death: ionomycin 6 μM, 24 hrs
[14] = tested on: Jurkat cells; details: model of Robertson et al., 2002; cited from earlier work

Compound: COC(=O)CCC(NC(=O)C(CC(C)C)NC(=O)OCc1ccccc1)C(=O)NC(C(=O)NC(CC(=O)OC)C(=O)CF)C(C)O (centres unmarked) [Z-LETD-FMK, N-benzyloxycarbonyl-Leu-Glu(Ome)-Thr-Asp(OMe)-fluoromethylketone] (Cbz-LE(OMe)TD(OMe)-CH2F; configuration not given here)
- survival / protection of SD-neurons against cell death (apoptosis hallmarks overall) [1]: failed to protect neurons from SD
- caspase-3 like activity / activation in SD-neurons [2]: failed also to block
- caspase-8 like activity in SD-neurons [3]: abolishing
- caspase-9 like activity / activation in SD-neurons [4]: failed also to block
- inhibition of VDVAD-AMC cleavage by recombinant caspase-2 [5]: did not interfere highly; also recorded: not strongly inactivated
- terminal nuclear alterations and PMP in VP16-treated Jurkat cells [6]: unable to prevent
- ΔΨm loss in VP16-treated Jurkat cells [6]: not abolished; also recorded: unable to prevent
- caspase-2 activation in VP16-treated Jurkat cells [7]: do not impair caspase-2 activation; also recorded: unable to prevent
- caspase-3 activation in VP16-treated Jurkat cells [8]: unable to prevent

Compound: COC(=O)CC(NC(=O)C(C)NC(=O)C(NC(=O)C(CC(=O)OC)NC(=O)C(NC(=O)OCc1ccccc1)C(C)C)C(C)C)C(=O)CF (stereo not drawn) [Z-VDVAD-FMK, N-benzyloxy-carbonyl-Val-Asp(Ome)-Val-Ala-Asp(OMe)-fluoromethylketone] (Cbz-VD(OMe)VAD(OMe)-CH2F; configuration not given here)
- survival / protection of SD-neurons against cell death (apoptosis hallmarks overall) [1]: abolish loss of ΔΨm loss as well as others hallmarks of apoptosis
- survival / protection of SD-neurons against cell death (apoptosis hallmarks overall) ([1]; listed as VDVAD): abolishes these hallmarks of apoptosis
- concentration required for optimal survival / higher protective effect ([1]; dose-response, inhibitor added at the initiation of 24 hr-SD): 100 µM
- caspase-2 like activity / activation in SD-neurons [9]: abolished; also recorded: abolish caspase-2 activation; also recorded: impair both Bax translocation and caspase-2 activity; also recorded: blocks
- decrease of procaspase-2 protein content (processing into p14 form) in SD-neurons ([9]; 24 hr-SD, 100 μM, Western Blotting 11B4): prevents it
- caspase-3 like activity / activation in SD-neurons [2]: inhibited; also recorded: prevent downstream cytochrome c release-dependent activation
- caspase-9 like activity / activation in SD-neurons [4]: inhibited; also recorded: prevent downstream cytochrome c release-dependent activation
- cytochrome c release from mitochondria in SD-neurons [10]: efficiently blocked
- cytochrome c release from mitochondria in SD-neurons ([10]; listed as VDVAD): reduce post-mitochondrial cytochrome c release
- Bax translocation (relocation) to mitochondria in SD-neurons [11]: impair Bax translocation to mitochondria; also recorded: impair both Bax translocation and caspase-2 activity
- Bax translocation (relocation) to mitochondria in SD-neurons ([11]; listed as VDVAD): prevented; also recorded: blocks; also recorded: prevents integration of p18 Bax into mitochondrial membrane
- Bax cleavage (p18 Bax) in SD-neurons [12]: prevent Bax cleavage
- cell death induced by staurosporine or ionomycin ([13]; cortical neurons): is not prevented
- protection against ionomycin-induced neuronal cell death [13]: provides no protective effect; also recorded: absence of protective effect
- protection against ionomycin-induced neuronal cell death ([13]; listed as VDVAD): absence of protection
- inhibition of VDVAD-AMC cleavage by recombinant caspase-2 [5]: blocked
- cell death induced by VP16 (survival) ([6]; Jurkat cells, VP16 7-8 hrs, inhibitors 25-100 μM pre-treatment, siRNA 24 hrs before): protective effect; also recorded: prevents cell death
- terminal nuclear alterations and PMP in VP16-treated Jurkat cells [6]: mostly prevent
- ΔΨm loss in VP16-treated Jurkat cells [6]: blocked ΔΨm loss
- cytochrome c release and phosphatidylserine residues exposure in Jurkat T cells [14]: decreased partially

— patent publication US20120329721A1, “MEANS FOR PREVENTING AND TREATING CELLULAR DEATH AND THEIR BIOLOGICAL APPLICATIONS” (CHIESI FARMACEUTICI S.P.A., priority 2003, published 2012)
